The record followed here is ChEMBL document CHEMBL4196087 (Eur J Med Chem, 2018).

Values after ≈ are worked out from the molar mass of the structure shown. Where only a bound is given, the exact number is not on record here.

For assay [1], the system named is UO-31. As to the kind of experiment: Antiproliferative activity against human UO31 cells after 48 hrs by MTT assay. Type of assay: functional, cell-based. Conditions: UO-31, 48 h.
For assay [2], the system named is UO-31. The assay can be described thus: Potency index, ratio of doxorubicin IC50 to compound IC50 for antiproliferative activity against human UO31 cells. Type of assay: functional.
For assay [3], the system named is UO-31. As to the kind of experiment: Antiproliferative activity against human UO31 cells after 48 hrs by SRB assay. Type of assay: functional. Conditions: UO-31, 48 h.
The test system of assay [4] is Bacillus subtilis. The assay can be described thus: Antibacterial activity against Bacillus subtilis at 37 degC measured after 24 hrs by agar disc diffusion method. Type of assay: functional.
Another assay deals with Staphylococcus aureus. The assay can be described thus: Antibacterial activity against Staphylococcus aureus at 37 degC measured after 24 hrs by agar disc diffusion method. Type of assay: functional.
In another assay the test system is Escherichia coli. The assay can be described thus: Antibacterial activity against Escherichia coli at 37 degC measured after 24 hrs by agar disc diffusion method. Type of assay: functional.
Assay [5] deals with Pseudomonas aeruginosa. The assay can be described thus: Antibacterial activity against Pseudomonas aeruginosa at 37 degC measured after 24 hrs by agar disc diffusion method. Type of assay: functional.
The next assay concerns MOLT-4. The assay can be described thus: Growth inhibition of human MOLT4 cells at 10^-5 M incubated for 48 hrs by sulforhodamine B assay relative to control. To be noted: MOLT-4, 48 h, read-out: GI. Type of assay: functional.
A further assay deals with HOP-62. The assay can be described thus: Growth inhibition of human HOP62 cells at 10^-5 M incubated for 48 hrs by sulforhodamine B assay relative to control. To be noted: HOP-62, 48 h, read-out: GI. It is filed as functional.
In another assay the test system is HOP-92. The assay can be described thus: Growth inhibition of human HOP92 cells at 10^-5 M incubated for 48 hrs by sulforhodamine B assay relative to control. Type of assay: functional. Conditions: HOP-92, 48 h, read-out: GI.
The next assay relates to LOX IMVI. As to the kind of experiment: Growth inhibition of human LOXIMVI cells at 10^-5 M incubated for 48 hrs by sulforhodamine B assay relative to control. It is filed as functional. To be noted: read-out: GI.
Assay [6] concerns UO-31. The assay can be described thus: Growth inhibition of human UO31 cells at 10^-5 M incubated for 48 hrs by sulforhodamine B assay relative to control. It is filed as functional. Conditions: UO-31, 48 h, read-out: GI.
A further assay relates to PC-3. As to the kind of experiment: Growth inhibition of human PC3 cells at 10^-5 M incubated for 48 hrs by sulforhodamine B assay relative to control. Conditions: PC-3, 48 h, read-out: GI. Type of assay: functional.
Another assay has as its system T47D. As to the kind of experiment: Growth inhibition of human T47D cells at 10^-5 M incubated for 48 hrs by sulforhodamine B assay relative to control. Type of assay: functional. To be noted: read-out: GI.
A further assay concerns SK-OV-3. The assay can be described thus: Growth inhibition of human SKOV3 cells at 10^-5 M incubated for 48 hrs by sulforhodamine B assay relative to control. Conditions: SK-OV-3, 48 h, read-out: GI. It is filed as functional.
In the next assay the test system is CCRF-CEM. As to the kind of experiment: Growth inhibition of human CCRF-CEM cells at 10^-5 M incubated for 48 hrs by sulforhodamine B assay relative to control. Type of assay: functional. Conditions: read-out: GI.
The subject of a further assay is HL-60(TB). As to the kind of experiment: Growth inhibition of human HL-60(TB) cells at 10^-5 M incubated for 48 hrs by sulforhodamine B assay relative to control. It is filed as functional. Conditions: HL-60, 48 h, read-out: GI.
The subject of the next assay is K562. The assay can be described thus: Growth inhibition of human K562 cells at 10^-5 M incubated for 48 hrs by sulforhodamine B assay relative to control. Type of assay: functional. To be noted: K562, 48 h, read-out: GI.
Another assay deals with RPMI-8226. As to the kind of experiment: Growth inhibition of human RPMI8226 cells at 10^-5 M incubated for 48 hrs by sulforhodamine B assay relative to control. It is filed as functional. Conditions: RPMI-8226, 48 h, read-out: GI.
In the next assay the test system is NCI-H226. The assay can be described thus: Growth inhibition of human NCI-H226 cells at 10^-5 M incubated for 48 hrs by sulforhodamine B assay relative to control. Type of assay: functional. To be noted: NCI-H226, 48 h, read-out: GI.
The subject of another assay is SF-539. As to the kind of experiment: Growth inhibition of human SF539 cells at 10^-5 M incubated for 48 hrs by sulforhodamine B assay relative to control. Type of assay: functional. Conditions: SF-539, 48 h, read-out: GI.
The subject of another assay is SNB-75. The assay can be described thus: Growth inhibition of human SNB75 cells at 10^-5 M incubated for 48 hrs by sulforhodamine B assay relative to control. Conditions: SNB-75, 48 h, read-out: GI. Type of assay: functional.
Another assay concerns SK-MEL-5. The assay can be described thus: Growth inhibition of human SK-MEL-5 cells at 10^-5 M incubated for 48 hrs by sulforhodamine B assay relative to control. Conditions: SK-MEL-5, 48 h, read-out: GI. Type of assay: functional.
A further assay relates to IGROV-1. The assay can be described thus: Growth inhibition of human IGROV1 cells at 10^-5 M incubated for 48 hrs by sulforhodamine B assay relative to control. To be noted: IGROV-1, 48 h, read-out: GI. It is filed as functional.
Another assay relates to A498. As to the kind of experiment: Growth inhibition of human A498 cells at 10^-5 M incubated for 48 hrs by sulforhodamine B assay relative to control. Conditions: A498, 48 h, read-out: GI. Type of assay: functional.
The subject of the next assay is MCF7. As to the kind of experiment: Growth inhibition of human MCF7 cells at 10^-5 M incubated for 48 hrs by sulforhodamine B assay relative to control. It is filed as functional. Conditions: MCF7, 48 h, read-out: GI.
Another assay deals with MDA-MB-231. The assay can be described thus: Growth inhibition of human MDA-MB-231 cells at 10^-5 M incubated for 48 hrs by sulforhodamine B assay relative to control. To be noted: MDA-MB-231, 48 h, read-out: GI. Type of assay: functional.
In another assay the test system is MDA-MB-468. As to the kind of experiment: Growth inhibition of human MDA-MB-468 cells at 10^-5 M incubated for 48 hrs by sulforhodamine B assay relative to control. It is filed as functional. Conditions: MDA-MB-468, 48 h, read-out: GI.
Assay [7] relates to Bacillus subtilis. As to the kind of experiment: Antibacterial activity against Bacillus subtilis at 37 degC measured after 24 hrs by CLSI M7-A4 protocol based method. Type of assay: functional.
The test system of assay [8] is Pseudomonas aeruginosa. The assay can be described thus: Antibacterial activity against Pseudomonas aeruginosa at 37 degC measured after 24 hrs by CLSI M7-A4 protocol based method. It is filed as functional.
Assay [9] relates to HL-60. As to the kind of experiment: Antiproliferative activity against human HL60 cells after 48 hrs by MTT assay. It is filed as functional, cell-based. To be noted: HL-60, 48 h.
Assay [10] has as its system HL-60. The assay can be described thus: Potency index, ratio of doxorubicin IC50 to compound IC50 for antiproliferative activity against human HL60 cells. Type of assay: functional.
Assay [11] has as its system HL-60. The assay can be described thus: Antiproliferative activity against human HL60 cells after 48 hrs by SRB assay. Type of assay: functional. Conditions: HL-60, 48 h, read-out: LC50 (the source's name).

`O=C(CN1CCN(c2cc3c(cc2F)c(=O)c(C(=O)O)cn3C2CC2)CC1)N/N=C/c1ccc(O)cc1O` yielded an IC50 in the assay on UO-31 [1] of 3.19 µM. For the same compound, the “Ratio IC50” value with UO-31 [2] is reported as 1.5 - 9. In the assay with UO-31 [3], this compound showed a median lethal concentration (LC50) of 13 µM. In addition, the “diameter of the inhibition zone (DIZ)” value with Bacillus subtilis [4] is 24 mm; with Staphylococcus aureus it was 21 mm; with Escherichia coli, 20 mm; with Pseudomonas aeruginosa [5], 23 mm.
As to `O=C(O)c1cn(C2CC2)c2cc(N3CCN(Cc4nnc(S)o4)CC3)c(F)cc2c1=O`, the inhibition of growth at 10 µM in the assay with MOLT-4 is 23%; in the assay on HOP-62 it was less than 20%; in the assay on HOP-92, less than 20%; with LOX IMVI it was less than 20%; with UO-31 [6] it was less than 20%; in the assay with PC-3, 23.4%. The inhibition of growth at 10 µM in the assay with T47D and in the assay with SK-OV-3 was less than 20% in each case. The “diameter of the inhibition zone (DIZ)” value with Bacillus subtilis [4] worked out at 29 mm; in the assay on Staphylococcus aureus it was 24 mm; in the assay on Escherichia coli, 25 mm; with Pseudomonas aeruginosa [5] it was 27 mm.
For the compound `O=C(CN1CCN(c2cc3c(cc2F)c(=O)c(C(=O)O)cn3C2CC2)CC1)N/N=C/c1cccs1`, the inhibition of growth at 10 µM in the assay on CCRF-CEM, with HL-60(TB), in the assay with K562, with MOLT-4, in the assay with RPMI-8226 and in the assay with HOP-62 was less than 20% in each case. Besides, the inhibition of growth at 10 µM is less than 20% with HOP-92; less than 20% in the assay with NCI-H226; less than 20% with SF-539; less than 20% with SNB-75; 27.7% with LOX IMVI; less than 20% with SK-MEL-5. Moreover, the inhibition of growth at 10 µM is less than 20% in the assay on IGROV-1; 23.1% in the assay with A498; less than 20% in the assay with UO-31 [6]; less than 20% in the assay with PC-3; less than 20% in the assay on MCF7; less than 20% with MDA-MB-231. Moreover, the inhibition of growth at 10 µM in the assay with T47D and with MDA-MB-468 was less than 20% throughout. In addition, the “diameter of the inhibition zone (DIZ)” value amounted to 28 mm in the assay with Bacillus subtilis [4], 23 mm in the assay with Staphylococcus aureus, 24 mm in the assay with Escherichia coli and 26 mm with Pseudomonas aeruginosa [5]. Moreover, the minimal inhibitory concentration (MIC) came out at 82 µg/mL (≈ 165 µM) in the assay on Bacillus subtilis [7] and 72 µg/mL (≈ 145 µM) in the assay with Pseudomonas aeruginosa [8].
As to `O=C(CSc1nnc(CN2CCN(c3cc4c(cc3F)c(=O)c(C(=O)O)cn4C3CC3)CC2)o1)c1ccc(Cl)cc1`, the inhibition of growth at 10 µM was less than 20% with MOLT-4; 23.5% with HOP-62; 27.2% in the assay on HOP-92; less than 20% in the assay on LOX IMVI; less than 20% in the assay with UO-31 [6]; less than 20% in the assay with PC-3. Moreover, the values for the inhibition of growth at 10 µM in the assay on T47D and in the assay with SK-OV-3 were 23% and 20.9%, respectively.
Turning to `O=C(CN1CCN(c2cc3c(cc2F)c(=O)c(C(=O)O)cn3C2CC2)CC1)N/N=C/c1c[nH]c2ccccc12`, the inhibition of growth at 10 µM is 54.4% in the assay with CCRF-CEM; 43% with HL-60(TB); less than 20% with K562; 24.6% in the assay with MOLT-4; less than 20% in the assay with RPMI-8226; less than 20% in the assay with HOP-62. Also, the inhibition of growth at 10 µM in the assay with HOP-92, in the assay with NCI-H226, in the assay on SF-539, in the assay with SNB-75, in the assay on LOX IMVI and in the assay with SK-MEL-5 was less than 20% in each case. Besides, the inhibition of growth at 10 µM in the assay with IGROV-1 was less than 20%; in the assay with A498, less than 20%; in the assay on UO-31 [6], 28.3%; with PC-3, less than 20%; with MCF7, 27.1%; in the assay on MDA-MB-231, 20.9%. Further, the inhibition of growth at 10 µM in the assay with T47D and in the assay with MDA-MB-468 was less than 20% each time. In addition, the IC50 with HL-60 [9] turned out to be 1.55 µM. In the assay with HL-60 [10], the “Ratio IC50” value was 5.7. Further, the CC50 with HL-60 [11] is 15.9 µM. Further, the “diameter of the inhibition zone (DIZ)” value was determined as 37 mm with Bacillus subtilis [4], 31 mm in the assay with Staphylococcus aureus, 31 mm in the assay on Escherichia coli and 33 mm in the assay on Pseudomonas aeruginosa [5]. The results for the minimum inhibitory concentration (MIC) in the assay on Bacillus subtilis [7] and against Pseudomonas aeruginosa [8] were 58 µg/mL (≈ 109 µM) and 30 µg/mL (≈ 56.5 µM), respectively.
Regarding `O=C(CSc1nnc(CN2CCN(c3cc4c(cc3F)c(=O)c(C(=O)O)cn4C3CC3)CC2)o1)c1ccccc1`, the inhibition of growth at 10 µM in the assay with MOLT-4 is less than 20%; in the assay on HOP-62, less than 20%; with HOP-92, less than 20%; in the assay on LOX IMVI it was 25.3%; with UO-31 [6] it was 20.3%; with PC-3, 23.9%. The inhibition of growth at 10 µM in the assay with T47D and in the assay on SK-OV-3 was less than 20% throughout.
For `CSc1nnc(CN2CCN(c3cc4c(cc3F)c(=O)c(C(=O)O)cn4C3CC3)CC2)o1`, the inhibition of growth at 10 µM with MOLT-4 is less than 20%; with HOP-62, less than 20%; in the assay on HOP-92, less than 20%; in the assay on LOX IMVI, less than 20%; in the assay on UO-31 [6], less than 20%; with PC-3 it was 24.9%. The figures for the inhibition of growth at 10 µM in the assay with T47D and in the assay with SK-OV-3 were 21.1% and less than 20%, respectively.
